According to US20100267743A1, “3-(PHENOXYPYRROLIDIN-3-YL-METHYL)HETEROARYL, 3-(PHENYLPYRROLIDIN-3-YLMETHOXY)HETEROARYL, AND 3-(HETEROARYLPYRROLIDIN-3-YLMETHOXY)HETEROARYL COMPOUNDS” (priority 2009, published 2010):

Assays:
NET = NET (Homo sapiens, UniProt P23975); assay: hNET radioligand binding assay (3H-nisoxetine); design: expressed in transfected cells; host or cells: HEK-293; conditions: hNET membranes (HEK-293), 1.0 nM 3H-nisoxetine; for Ki: read-out: NET pKi (converted)
Procedure, shortened: (§1)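 Membranes came from HEK-293 cells stably expressing hSERT (0.5 μg protein) or hNET (1 μg), with 3H-citalopram or 3H-nisoxetine respectively. Incubation was 60 min at 22° C in Tris buffer with 120 mM NaCl and 5 mM KCl, pH 7.4, followed by filtration and scintillation counting. pKi was derived by Cheng-Prusoff from IC50 and saturation-derived Kd.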

SERT = SERT (Homo sapiens, UniProt P31645); assay: hSERT radioligand binding assay (3H-citalopram); design: expressed in transfected cells; host or cells: HEK-293; conditions: hSERT membranes (HEK-293), 1.0 nM 3H-citalopram; for Ki: read-out: SERT pKi (converted)
SERT, sequence (P31645 whole entry): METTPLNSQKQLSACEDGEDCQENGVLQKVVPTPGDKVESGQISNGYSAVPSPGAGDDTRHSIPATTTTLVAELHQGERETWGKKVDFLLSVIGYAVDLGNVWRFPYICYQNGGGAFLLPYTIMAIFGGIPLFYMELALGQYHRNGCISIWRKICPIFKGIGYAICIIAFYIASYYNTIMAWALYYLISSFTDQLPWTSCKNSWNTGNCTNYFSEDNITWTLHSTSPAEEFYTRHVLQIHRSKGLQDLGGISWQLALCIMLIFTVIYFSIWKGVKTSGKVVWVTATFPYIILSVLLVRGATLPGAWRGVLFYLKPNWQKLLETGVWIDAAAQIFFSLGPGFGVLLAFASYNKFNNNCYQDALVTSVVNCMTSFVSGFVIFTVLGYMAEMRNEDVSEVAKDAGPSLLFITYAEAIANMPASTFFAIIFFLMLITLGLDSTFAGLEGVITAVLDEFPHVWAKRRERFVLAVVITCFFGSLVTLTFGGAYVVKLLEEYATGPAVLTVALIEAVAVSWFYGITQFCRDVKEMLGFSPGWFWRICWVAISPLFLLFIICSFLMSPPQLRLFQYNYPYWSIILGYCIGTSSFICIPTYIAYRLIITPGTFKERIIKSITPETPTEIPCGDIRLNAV
Procedure, shortened: as §1

NET, sequence (P23975 whole entry): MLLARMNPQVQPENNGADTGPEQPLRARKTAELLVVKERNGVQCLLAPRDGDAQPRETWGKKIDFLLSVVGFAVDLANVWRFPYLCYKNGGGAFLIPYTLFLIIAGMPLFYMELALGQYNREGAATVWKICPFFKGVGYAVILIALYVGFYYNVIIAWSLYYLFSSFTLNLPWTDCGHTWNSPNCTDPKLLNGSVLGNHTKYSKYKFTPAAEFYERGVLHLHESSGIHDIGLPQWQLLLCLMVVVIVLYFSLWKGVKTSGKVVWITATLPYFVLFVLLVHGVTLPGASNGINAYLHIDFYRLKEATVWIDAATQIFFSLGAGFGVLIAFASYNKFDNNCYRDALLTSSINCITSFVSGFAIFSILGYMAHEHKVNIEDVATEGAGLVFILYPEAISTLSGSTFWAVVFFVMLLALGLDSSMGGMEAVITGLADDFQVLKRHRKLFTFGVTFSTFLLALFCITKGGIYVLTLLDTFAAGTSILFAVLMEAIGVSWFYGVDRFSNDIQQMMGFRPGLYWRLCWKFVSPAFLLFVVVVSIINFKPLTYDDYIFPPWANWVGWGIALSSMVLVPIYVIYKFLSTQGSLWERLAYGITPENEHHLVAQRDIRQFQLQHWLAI

SMILES | NET pKi (NET) | SERT pKi (SERT) | Ki (NET) [µM] | Ki (SERT) [nM]
FC(F)(F)c1ccc(O[C@H](c2ccccc2)[C@@H]2CCNC2)nc1.O=C(O)C(F)(F)F [14-24] | ≧5.0 | ≧7.0 | – | –
Fc1cc(F)c(O[C@@H](c2ccncc2)[C@H]2CCNC2)c(F)c1 [Example 3-1, 4-[(R)-(S)-Pyrrolidin-3-yl-(2,4,6-trifluorophenoxy)methyl]pyridine] | – | – | ≤ 10 | ≤ 10000
Clc1ncccc1O[C@@H](c1ccccc1)[C@H]1CCNC1.O=C(O)C(F)(F)F [15-6] | ≧7.0 | ≧7.0 | – | –
Fc1ccc(O[C@H](c2nccs2)[C@H]2CCNC2)cc1Cl [Example 5-31] | ≧7.0 | ≧7.0 | – | –
COc1cc(Cl)ccc1O[C@@H](c1ncco1)[C@H]1CCNC1 [6-39] | ≧7.0 | ≧7.0 | – | –
Clc1cc(O[C@@H](c2ccccc2)[C@H]2CCNC2)cc(Cl)n1.O=C(O)C(F)(F)F [16-2] | ≧5.0 | ≧7.0 | – | –
Cc1ccc(Cl)c(O[C@H](c2ccncc2)[C@H]2CCNC2)c1Cl [Example 3-7, 4-[(S)-(2,6-Dichloro-3-methylphenoxy)-(S)-pyrrolidin-3-yl-methyl]pyridine] | – | – | ≤ 0.1 | ≤ 100
Fc1cncc([C@@H](Oc2cc(Cl)cc(Cl)c2)[C@H]2CCNC2)c1 [Example 2-66, 3-[(S)-(3,5-Dichlorophenoxy)-(S)-pyrrolidin-3-yl-methyl]-5-fluoropyridine] | – | – | ≤ 0.1 | ≤ 100
Clc1ccc(O[C@@H](c2ccccc2)C2CCNC2)cn1 (stereo partly shown) [15-22] | – | – | ≤ 10 | ≤ 100
COc1ccccc1O[C@@H](c1cnccn1)[C@H]1CCNC1.O=C(O)C(F)(F)F [10-7] | ≧7.0 | ≧5.0 | – | –
Cc1cc(Cl)cc(Cl)c1OC(c1cncc(Cl)c1)C1CCNC1 [Example 2-30, 3-Chloro-5-[(R)-(2,4-dichloro-6-methylphenoxy)-(S)-pyrrolidin-3-yl-methy1]-pyridine] | – | – | ≤ 10 | ≤ 100
Clc1ccc(Cl)c(O[C@@H](c2cccnc2)[C@H]2CCNC2)c1Cl [Example 2-67, 3-[(R)-(S)-Pyrrolidin-3-yl-(2,3,6-trichlorophenoxy)methyl]pyridine] | – | – | ≤ 0.1 | ≤ 100
Fc1cc(Cl)c(OC(c2nccs2)C2CCNC2)c(Cl)c1 [Example 5-10, 2-[(R)-(2,6-Dichloro-4-fluorophenoxy)-((S)-pyrrolidin-3-yl-methyl]thiazole] | – | – | ≤ 10 | ≤ 10000
Fc1ccc(OC(c2nccs2)[C@H]2CCNC2)c(Cl)c1 (stereo partly drawn) [Example 5-20, 2-[(S)-(2-Chloro-4-fluorophenoxy)-pyrrolidin-3-yl-methyl]thiazole] | – | – | ≤ 0.1 | ≤ 100
Fc1cc(F)c(O[C@@H](c2ccccc2)[C@H]2CCNC2)nc1F.O=C(O)C(F)(F)F [14-1] | ≧5.0 | ≧7.0 | – | –
Cc1cccc(C)c1O[C@@H](c1ncco1)[C@H]1CCNC1.O=C(O)C(F)(F)F [6-14] | ≧7.0 | ≧7.0 | – | –
Cc1ccc(Cl)c(OC(c2cccnc2)[C@H]2CCNC2)c1Cl (stereo partly drawn) [Example 2-74, 3-[(S)-(2,6-Dichloro-3-methylphenoxy)-pyrrolidin-3-yl-methyl]pyridine] | – | – | ≤ 0.1 | ≤ 100
Fc1ccc(F)c(O[C@@H](c2cncnc2)[C@H]2CCNC2)c1Cl.O=C(O)C(F)(F)F [12-1] | ≧7.0 | ≧5.0 | – | –
COc1ccccc1O[C@H](c1cncc(Cl)c1)[C@H]1CCNC1 [Example 2-13, 3-Chloro-5-[(S)-(2-methoxyphenoxy)-(S)-pyrrolidin-3-yl-methyl]pyridine] | – | – | ≤ 10 | ≤ 10000
COc1cc(F)c(O[C@H](c2nccs2)C2CCNC2)c(F)c1 (stereo partly shown) [Example 5-29] | ≧5.0 | ≧7.0 | – | –
CCOc1ncccc1O[C@@H](c1ccccc1)[C@H]1CCNC1.O=C(O)C(F)(F)F [15-20] | ≧7.0 | ≧7.0 | – | –
Cc1ccccc1O[C@@H](c1ncco1)[C@H]1CCNC1 [6-33] | – | – | ≤ 0.1 | ≤ 10000
Fc1cc(F)c(OC(c2nccs2)C2CCNC2)c(F)c1 [Example 5-7, 2-[((S)-((S)-Pyrrolidin-3-yl-(2,4,6-trifluorophenoxy)methyl]thiazole] | – | – | ≤ 0.1 | ≤ 100
Cc1cccc(O[C@@H](c2ncco2)[C@H]2CCNC2)c1 [6-46] | – | – | ≤ 10 | ≤ 10000
Cc1ccccc1O[C@@H](c1nccs1)[C@H]1CCNC1 [Example 5-24] | ≧5.0 | ≧7.0 | – | –

SMILES | NET pKi (NET) | SERT pKi (SERT) | Ki (NET) [µM] | Ki (SERT) [nM]
Fc1c(Cl)nc(O[C@@H](c2ccccc2)[C@H]2CCNC2)c(F)c1Cl.O=C(O)C(F)(F)F [14-6] | ≧7.0 | ≧7.0 | – | –
Cc1ccc(F)c(O[C@H](c2nccs2)C2CCNC2)c1Cl (stereo partly shown) [Example 5-17] | ≧7.0 | ≧7.0 | – | –
Cc1ccnc(OC(c2ccccc2)C2CCNC2)c1 (stereo not shown) [14-32] | ≧7.0 | ≧7.0 | – | –
Clc1ccc(OC(c2ncco2)C2CCNC2)c(Cc2ccccc2)c1 (stereo not shown) [6-16] | ≧7.0 | ≧7.0 | – | –
Cc1ccc(O[C@@H](c2ccccc2)[C@H]2CCNC2)nc1.O=C(O)C(F)(F)F [14-30] | ≧7.0 | ≧5.0 | – | –
Cc1cc(Cl)cc(C)c1O[C@@H](c1ncco1)[C@H]1CCNC1.O=C(O)C(F)(F)F [6-15] | ≧5.0 | ≧7.0 | – | –
COc1ccc2ccccc2c1OC(c1ccccc1)C1CCNC1 (stereo not shown) [21-8] | – | – | ≤ 0.1 | ≤ 100
Brc1cnc(O[C@@H](c2ccccc2)[C@H]2CCNC2)c(Br)c1.O=C(O)C(F)(F)F [14-13] | ≧7.0 | ≧7.0 | – | –
Cc1cc(Cl)c(O[C@H](c2nccs2)[C@H]2CCNC2)c(Cl)c1 [Example 5-14] | ≧5.0 | ≧7.0 | – | –
COc1ncccc1O[C@@H](c1ccccc1)[C@H]1CCNC1.O=C(O)C(F)(F)F [15-17] | ≧7.0 | ≧7.0 | – | –
COc1cccc(F)c1O[C@@H](c1ncco1)[C@H]1CCNC1.O=C(O)C(F)(F)F [6-41] | ≧7.0 | ≧5.0 | – | –
Clc1ccc(O[C@@H](c2ccccc2)[C@H]2CCNC2)c(Cl)n1.O=C(O)C(F)(F)F [15-3] | ≧7.0 | ≧7.0 | – | –
Clc1cc(-c2ccccc2)ccc1O[C@@H](c1ncco1)[C@H]1CCNC1.O=C(O)C(F)(F)F [6-25] | ≧7.0 | ≧5.0 | – | –
Clc1cccc(O[C@@H](c2ncco2)[C@H]2CCNC2)c1.O=C(O)C(F)(F)F [6-45] | ≧7.0 | ≧5.0 | – | –
O=C(O)C(F)(F)F.c1ccc([C@H](Oc2ccccn2)[C@H]2CCNC2)cc1 [14-41] | ≧7.0 | ≧7.0 | – | –
Fc1cc(F)c(O[C@@H](c2ncco2)[C@H]2CCNC2)c(F)c1 [6-2] | – | – | ≤ 10 | ≤ 10000
Clc1ccc(O[C@H](c2ccccc2)[C@@H]2CCNC2)cn1.O=C(O)C(F)(F)F [15-23] | ≧5.0 | ≧7.0 | – | –
Fc1ccc(F)c(O[C@H](c2ncco2)[C@H]2CCNC2)c1Cl [6-21] | – | – | ≤ 10 | ≤ 10000
FC(F)(F)c1cc(Cl)ccc1O[C@@H](c1ncco1)[C@H]1CCNC1.O=C(O)C(F)(F)F [6-18] | ≧7.0 | ≧7.0 | – | –
Cc1cc(Cl)ccc1O[C@H](c1ncco1)[C@H]1CCNC1 [6-35] | – | – | ≤ 10 | ≤ 100
COc1cccc(C(Oc2cccc3ccccc23)C2CCNC2)c1 (stereo not shown) [21-6] | – | – | ≤ 0.1 | ≤ 100
COc1cccnc1O[C@@H](c1ccccc1)[C@H]1CCNC1.O=C(O)C(F)(F)F [14-39] | ≧5.0 | ≧7.0 | – | –
FC(F)(F)c1ccccc1O[C@@H](c1ncco1)[C@H]1CCNC1 [6-17] | – | – | ≤ 0.1 | ≤ 10000
Fc1cncc([C@H](Oc2cc(Cl)c(Cl)cc2Cl)[C@H]2CCNC2)c1 [Example 2-34, 3-Fluoro-5-[(R)-(S)-pyrrolidin-3-yl-(2,4,5-trichlorophenoxy)-methyl]pyridine] | – | – | ≤ 10 | ≤ 100
CCc1cc(F)ccc1O[C@@H](c1ncco1)[C@H]1CCNC1.O=C(O)C(F)(F)F [6-30] | ≧7.0 | ≧7.0 | – | –
